Reference: ChEMBL document CHEMBL1201862, “PubChem BioAssay data set” (2004)
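How tested: cells in 96-well plates exposed to compound for 48 hours at five concentrations. GI50 marks 50% less growth.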 Activity calls are given as the source filed them. No stated cut-off is given here; in the data, active = GI50 up to about 1.1 µM and inactive = higher.

Assays:
Assay in all cases: NCI-60 cell line screen, 48 h
A498 = tested on: A498
ACHN = tested on: ACHN
CCRF-CEM = tested on: CCRF-CEM
HCT-116 = tested on: HCT-116
HT-29 = tested on: HT-29
Hs-578T = tested on: Hs-578T
MCF7 = tested on: MCF7
MDA-MB-435 = tested on: MDA-MB-435
NCI-H23 = tested on: NCI-H23
NCI-H522 = tested on: NCI-H522
OVCAR-8 = tested on: OVCAR-8
SF-295 = tested on: SF-295
SK-OV-3 = tested on: SK-OV-3
SN12C = tested on: SN12C
SNB-19 = tested on: SNB-19
UACC-62 = tested on: UACC-62
UO-31 = tested on: UO-31
RPMI-8226 = tested on: RPMI-8226
TK-10 = tested on: TK-10
RXF 393 = tested on: RXF 393

Measured: GI50

Cc1ncc([N+](=O)[O-])n1CCNC(=O)CCCCCn1ccnc1[N+](=O)[O-]
inactive: A498 > 100 µM | ACHN > 100 µM | CCRF-CEM > 100 µM | HCT-116 > 100 µM | HT-29 > 100 µM | Hs-578T > 100 µM | MCF7 > 100 µM | MDA-MB-435 > 100 µM | NCI-H23 > 100 µM | NCI-H522 > 100 µM | OVCAR-8 > 100 µM | SF-295 > 100 µM | SK-OV-3 > 100 µM | SN12C > 100 µM | SNB-19 > 100 µM | UACC-62 > 100 µM | UO-31 > 100 µM

COc1c(Sc2c(SCSc3cnc4ccccc4c3Sc3cnc4ccccc4c3OC)cnc3ccccc23)cnc2ccccc12
inactive: ACHN 82.6 µM | CCRF-CEM > 100 µM | HCT-116 46.5 µM | HT-29 78.7 µM | Hs-578T 52.2 µM | MDA-MB-435 26.9 µM | NCI-H23 54.8 µM | NCI-H522 19.2 µM | OVCAR-8 31.7 µM | RPMI-8226 9.2 µM | SF-295 > 100 µM | SN12C > 100 µM | SNB-19 22.4 µM | TK-10 38.6 µM | UACC-62 39.1 µM | UO-31 24.7 µM

COc1cc2c(cc1OC)CCc1cc(OC)c(OC)cc1CC2
inactive: A498 > 100 µM | ACHN > 100 µM | CCRF-CEM > 100 µM | HCT-116 > 100 µM | HT-29 > 100 µM | Hs-578T > 100 µM | MCF7 > 100 µM | MDA-MB-435 > 100 µM | NCI-H23 > 100 µM | OVCAR-8 > 100 µM | SF-295 > 100 µM | SK-OV-3 > 100 µM | SN12C > 100 µM | SNB-19 > 100 µM | TK-10 > 100 µM | UACC-62 > 100 µM | UO-31 > 100 µM

O=[N+]([O-])c1ccc2oc(=N/c3ccccc3)/c(=N\c3ccccc3)[nH]c2c1
inactive: A498 59.4 µM | ACHN 24.7 µM | CCRF-CEM > 100 µM | HCT-116 48.2 µM | HT-29 87.3 µM | Hs-578T 19.7 µM | MDA-MB-435 > 100 µM | NCI-H23 57.4 µM | NCI-H522 6.97 µM | OVCAR-8 75.3 µM | RPMI-8226 > 100 µM | RXF 393 24.9 µM | SF-295 47.9 µM | SK-OV-3 55.7 µM | SN12C 46.5 µM | SNB-19 41 µM | TK-10 26.8 µM | UACC-62 58.7 µM | UO-31 77.1 µM

COc1ccc2[nH]c3c(c2c1)CCc1ccccc1-3
inactive: ACHN > 100 µM | CCRF-CEM > 100 µM | HCT-116 > 100 µM | HT-29 > 100 µM | Hs-578T 17.4 µM | MCF7 79.3 µM | MDA-MB-435 > 100 µM | NCI-H23 41.7 µM | NCI-H522 26.7 µM | OVCAR-8 27.7 µM | SF-295 32.8 µM | SK-OV-3 40.9 µM | SN12C > 100 µM | SNB-19 81.3 µM | TK-10 > 100 µM | UACC-62 > 100 µM | UO-31 70.1 µM

CCCC(CCN)(CCN)[N+](=O)[O-]
inactive: A498 > 100 µM | ACHN > 100 µM | CCRF-CEM > 100 µM | HCT-116 > 100 µM | HT-29 > 100 µM | Hs-578T > 100 µM | MDA-MB-435 > 100 µM | NCI-H23 > 100 µM | NCI-H522 > 100 µM | OVCAR-8 > 100 µM | RPMI-8226 > 100 µM | RXF 393 > 100 µM | SF-295 > 100 µM | SK-OV-3 > 100 µM | SN12C > 100 µM | SNB-19 > 100 µM | TK-10 > 100 µM | UACC-62 > 100 µM | UO-31 > 100 µM
